Results on eight molecules are retold here after PubChem BioAssay (NCI).

By GI50 is commonly meant the concentration at which growth is held to half of that of the control. In general, TGI refers to the concentration giving total growth inhibition. Lower therefore signals more potent growth arrest.

Where “and” joins values, the source holds several entries; their conditions need not be identical. Equal values may be shown once.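 Five concentrations, 48 hours, 96-well plates. GI50: concentration for 50% inhibition of growth. TGI is the concentration that stops growth completely.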

Test systems include BT-549 breast; CAKI-1 renal; MALME-3M melanoma; MDA-MB-231 breast; OVCAR-4 ovarian; RPMI-8226 leukemia; SF-295 CNS; SK-MEL-28 melanoma; SK-MEL-5 melanoma; UACC-257 melanoma.
Common to all, as to test: DTP human tumour cell line panel, 48 h

In the case of `COc1ccccc1Cn1cc2c(c1)-c1oncc1CC2`, the GI50 in the assay with BT-549 breast is 7500 nM; with CAKI-1 renal it was 545 nM; in the assay with MALME-3M melanoma it was 1410 nM; in the assay with MDA-MB-231 breast, 1340 nM; with OVCAR-4 ovarian, 3860 nM; in the assay on RPMI-8226 leukemia, 454 nM. In addition, the GI50 in the assay on SF-295 CNS was 375 nM; with SK-MEL-28 melanoma it was 2520 nM; with SK-MEL-5 melanoma, 450 nM; with UACC-257 melanoma it was 10400 nM. Moreover, the TGI in the assay with BT-549 breast was above 100000 nM; in the assay on CAKI-1 renal, above 55800 nM; in the assay on MALME-3M melanoma it was above 100000 nM; in the assay with MDA-MB-231 breast, above 100000 nM; with OVCAR-4 ovarian it was 97900 nM; in the assay with SF-295 CNS, 3880 nM. The TGI in the assay on SK-MEL-28 melanoma is above 100000 nM; in the assay with SK-MEL-5 melanoma, 6770 nM; in the assay on UACC-257 melanoma, above 63600 nM.
`CCOP(=O)(OCC)/C(C#N)=C\c1cccc2ccccc12`: the concentration for total growth inhibition (TGI) is above 100000 nM in the assay on BT-549 breast; above 100000 nM in the assay with CAKI-1 renal; above 100000 nM in the assay with MALME-3M melanoma; above 100000 nM with MDA-MB-231 breast; above 100000 nM in the assay on OVCAR-4 ovarian; above 66500 nM in the assay with RPMI-8226 leukemia. The TGI in the assay on SF-295 CNS, in the assay with SK-MEL-28 melanoma, with SK-MEL-5 melanoma and in the assay on UACC-257 melanoma was above 100000 nM throughout.
As for `Cn1c(=O)n(-c2ccc(C(C)(C)C#N)cc2)c2c3cc(-c4cnc5ccccc5c4)ccc3ncc21`, the concentration for 50% growth inhibition (GI50) is 4.93 nM and < 10 nM in the assay with BT-549 breast; 5.76 nM and < 10 nM in the assay on MALME-3M melanoma; 19.7 nM and 6.86 nM and < 11 nM in the assay with MDA-MB-231 breast; 16.2 nM and 4.09 nM and 10 nM with OVCAR-4 ovarian; < 11.6 nM and 6.03 nM and < 11.4 nM with RPMI-8226 leukemia; < 10 nM and 4.01 nM with SF-295 CNS. In addition, the GI50 with SK-MEL-28 melanoma is 16 nM and 32.8 nM and < 12.3 nM; in the assay with SK-MEL-5 melanoma it was 15.4 nM and 6.46 nM and < 15.2 nM; in the assay on UACC-257 melanoma, < 10.5 nM and 6.72 nM and < 10 nM. Further, the TGI with CAKI-1 renal is 40.1 nM; with MALME-3M melanoma, 40 nM and 56.8 nM; in the assay on MDA-MB-231 breast, 48500 nM and > 10000 nM and > 44300 nM; in the assay on RPMI-8226 leukemia it was 385 nM and 3130 nM and 1240 nM; in the assay on SF-295 CNS, 27.8 nM and 20.3 nM and 18.1 nM; in the assay on SK-MEL-5 melanoma, 91.1 nM and 106 nM and 85.9 nM. For the same molecule, the TGI with UACC-257 melanoma is 49.3 nM and 436 nM and 45.7 nM.
For `COc1cccc(-c2nn(-c3ccccc3)cc2-c2ccnc(NCCNC(=O)Nc3ccc(Cl)c(Cl)c3)c2)c1`, the GI50 is 2940 nM in the assay with BT-549 breast; 2790 nM in the assay on CAKI-1 renal; 1890 nM in the assay on MALME-3M melanoma; 2040 nM in the assay with MDA-MB-231 breast; 3250 nM with OVCAR-4 ovarian; 2600 nM with RPMI-8226 leukemia. In addition, the GI50 is 2410 nM in the assay with SF-295 CNS, 2030 nM with SK-MEL-28 melanoma, 1950 nM in the assay with SK-MEL-5 melanoma and 3630 nM in the assay with UACC-257 melanoma. Moreover, the TGI in the assay with BT-549 breast was 10400 nM; with CAKI-1 renal it was 11100 nM; with MALME-3M melanoma, 4660 nM; in the assay on MDA-MB-231 breast, 5040 nM; in the assay with OVCAR-4 ovarian, 16200 nM; with RPMI-8226 leukemia it was 7520 nM. The TGI with SF-295 CNS amounted to 7280 nM; with SK-MEL-28 melanoma, 4590 nM; with SK-MEL-5 melanoma, 3710 nM; with UACC-257 melanoma, 20300 nM.
`NC(Cc1nn[nH]n1)C(=O)O` (stereo unspecified): the TGI in the assay on BT-549 breast, with CAKI-1 renal, with MALME-3M melanoma, with MDA-MB-231 breast, in the assay on OVCAR-4 ovarian and in the assay with RPMI-8226 leukemia was above 100000 nM throughout. For the same molecule, the TGI in the assay with SF-295 CNS, in the assay on SK-MEL-28 melanoma, with SK-MEL-5 melanoma and with UACC-257 melanoma was above 100000 nM throughout.
As for `COc1ccc2nc3ccc(OC)cc3c(SCCCN)c2c1`, the GI50 with BT-549 breast was 10500 nM; in the assay with CAKI-1 renal, 9790 nM; with MALME-3M melanoma, 1600 nM; in the assay with MDA-MB-231 breast, 9780 nM; with OVCAR-4 ovarian it was 5020 nM; with RPMI-8226 leukemia, 1780 nM. In addition, the GI50 in the assay on SF-295 CNS is 18300 nM; with SK-MEL-28 melanoma, 1990 nM; in the assay on SK-MEL-5 melanoma it was 7820 nM; with UACC-257 melanoma, 15600 nM. In addition, the TGI was determined as 23400 nM in the assay on BT-549 breast; 26000 nM in the assay on CAKI-1 renal; 10500 nM in the assay with MALME-3M melanoma; 25300 nM in the assay on MDA-MB-231 breast; 17000 nM in the assay on OVCAR-4 ovarian; 3920 nM in the assay on RPMI-8226 leukemia. Moreover, the TGI with SF-295 CNS is 38700 nM; in the assay with SK-MEL-28 melanoma, 3860 nM; in the assay with SK-MEL-5 melanoma it was 25700 nM; in the assay with UACC-257 melanoma it was 29800 nM.
Turning to `c1ccc2c(c1)nc(NCCN1CCNCC1)c1c3ccccc3[nH]c21`, the GI50 with BT-549 breast was 1530 nM; in the assay with CAKI-1 renal it was 454 nM; in the assay with MALME-3M melanoma it was 1790 nM; in the assay with MDA-MB-231 breast, 676 nM; in the assay with OVCAR-4 ovarian, 379 nM; in the assay on SF-295 CNS, 618 nM. For the same molecule, the GI50 in the assay with SK-MEL-28 melanoma is 1370 nM; with SK-MEL-5 melanoma it was 1270 nM; in the assay on UACC-257 melanoma, 1710 nM. Further, the TGI was determined as 4040 nM in the assay with BT-549 breast; 2810 nM in the assay on CAKI-1 renal; 3820 nM in the assay with MALME-3M melanoma; 2280 nM in the assay on MDA-MB-231 breast; 2240 nM in the assay with OVCAR-4 ovarian; 399 nM with RPMI-8226 leukemia. Further, the TGI in the assay with SF-295 CNS stood at 2210 nM; in the assay with SK-MEL-28 melanoma, 2800 nM; in the assay on SK-MEL-5 melanoma, 2610 nM; in the assay with UACC-257 melanoma, 3270 nM.
Consider `O=C1c2c(O)cccc2C(C(=O)CCCCC(=O)C2c3cccc(O)c3C(=O)c3c(O)cccc32)c2cccc(O)c21`, for which the total growth inhibition concentration (TGI) is 1960 nM in the assay with BT-549 breast; 8430 nM and 9380 nM in the assay on CAKI-1 renal; 4380 nM and 2920 nM with MALME-3M melanoma; 900 nM with MDA-MB-231 breast; 1740 nM and 2310 nM in the assay on OVCAR-4 ovarian; 1300 nM and 3080 nM in the assay with RPMI-8226 leukemia. Moreover, the TGI in the assay with SF-295 CNS is 4570 nM and 1490 nM; in the assay on SK-MEL-28 melanoma it was 2500 nM and 3270 nM; in the assay with SK-MEL-5 melanoma, 921 nM and 2040 nM; with UACC-257 melanoma it was 1340 nM and 2960 nM. Further, the GI50 is 3240 nM in the assay with CAKI-1 renal; 1210 nM with OVCAR-4 ovarian; 1040 nM in the assay with RPMI-8226 leukemia; 672 nM in the assay on SF-295 CNS; 1540 nM in the assay on SK-MEL-28 melanoma; 1090 nM with SK-MEL-5 melanoma. For the same molecule, the GI50 in the assay with UACC-257 melanoma is 1380 nM.
